Measured values taken from US11780895B2, “Targeted DNA demethylation and methylation” (The Jackson Laboratory, priority 2016, dated 2023).

Tested on: hMLH1
Assay: hMLH1 mRNA levels by TaqMan qRT-PCR in transfected HEK293T cells
Type: cell-based, human
Settings: for activation of hMLH1 by dCas9 direct fusions (relative change in mRNA levels): same combination of sgRNAs as Casilio-ME; for hMLH1 expression, fold over background (change in mRNA levels): sgRNAs 3+7, 60 hours post-transfection, GAPDH normalised
Experimental: To test the system, HEK293T cells were transfected with Casilio-ME components including Ct or Nt-fusion TET1-effector and a combination of 3 or 2 sgRNAs. Relative levels of hMLH1 mRNA were determined in TaqMan assays by using RNA extracted from cells 60 hours post-transfection and GAPDH as endogenous control for normalization of qRT-PCR measurements.
Cell culture and transfection. HEK293T cells were cultivated in Dulbecco's modified Eagle's medium (DMEM)(Sigma) with 10% fetal bovine serum (FBS)(Lonza), 4% Glutamax (Gibco), 1% Sodium Pyruvate (Gibco) and penicillin-streptomycin (Gibco) in an incubator set to 37° C. and 5% CO2. When indicated cells were treated with 2.5 μM or 5 μM 5-Azacytidine (sigma) as indicated with a daily change of medium containing freshly diluted drug. Cells were seeded into 12-well plates at 150,000 cells per well the day before being transfected with 100 ng of dCas9 construct, 100 ng of modified sgRNA construct and 200 ng of PUF-fusion with Attractene transfection reagent according to manufacturer's instructions (Qiagen). In dCas9-direct fusion experiments, cells were transfected with 200 ng dCas9-fusion constructs and 200 ng of modified sgRNA constructs. Transfected cells were harvested 60 hours after transfection, or otherwise indicated, and cell pellets were used for extractions of RNA, genomic DNA and protein.
Quantitative RT-PCR analysis. Cells were harvested, washed with Dulbecco's phosphate-buffered saline (dPBS), centrifuged at 125×g for 5 min and then the flash-frozen pellets were stored at −80° C. RNA was extracted using RNeasy Plus Mini Kit according to the manufacturer's instructions (Qiagen). cDNA libraries were made using Applied Biosystems High Capacity RNA-to-cDNA kit with 200 ng to 1 μg of RNA. TaqMan gene expression assays (Applied Biosystems) were designed using GAPDH (Hs03929097, VIC) as endogenous control and hMLH1 (Hs00179866, FAM) as target. TaqMan Universal Master Mix II, with UNG (Applied Biosystems) was used for Quantitative PCR (qPCR), with 2 μl of diluted cDNA used for each reaction. Activation was analyzed with the Applied Biosystems ViiA7 instrument. Gene expression levels were calculated by “delta delta Ct” algorithm and normalized to control samples.

Molecule	activation of hMLH1 by dCas9 direct fusions (relative change in mRNA levels) (HEK293T)	hMLH1 activation relative to dCas9-p65HSF1 (HEK293T, same sgRNA combination)	hMLH1 expression, fold over background (change in mRNA levels) (HEK293T)	hMLH1 activation as percentage of the activation obtained using Casilio-ME (same sgRNAs combination, parallel experiment)	time course of activation of hMLH1 transcription (HEK293T, RNA guides 3 and 7, 3, 4, 5 and 6 days post transfection)
dCas9-TET1(CD): direct fusion of TET1(CD) to the C-terminus of dCas9	relatively weak activation	at best twice the activity obtained with transcription activator dCas9 fusion	19 fold	about 14%	–
TET1(CD)-dCas9: direct fusion of TET1(CD) to the N-terminus of dCas9	much weaker activation than its respective C-terminal fusion	–	–	–	–
TET1(CD)-PUFa: hTET1 catalytic domain fused to the N-terminus of PUFa (protein) MGPAELPTCSCLDRVIQKDKGPYYTHLGAGPSVAAVREIMENRYGQKGNAIRIEIVVYTGKEGKSSHGCPIAKWVLRRSSDEEKVLCLVRQRTGHHCPTAVMVVLIMVWDGIPLPMADRLYTELTENLKSYNGHPTDRRCTLNENRTCTCQGIDPETCGASFSFGCSWSMYFNGCKFGRSPSPRRFRIDPSSPLHEKNLEDNLQSLATRLAPIYKQYAPVAYQNQVEYENVARECRLGSKEGRPFSGVTACLDFCAHPHRDIHNMNNGSTVVCTLTREDNRSLGVIPQDEQLHVLPLYKLSDTDEFGSKEGMEAKIKSGAIEVLAPRRKKRTCFTQPVPRSGKKRAAMMTEVLAHKIRAVEKKPIPRIKRKNNSTTTNNSKPSSLPTLGSNTETVQPEVKSETEPHFILKSSDNTKTYSLMPSAPHPVKEASPGFSWSPKTASATPAPLKNDATASCGFSERSSTPHCTMPSGRLSGANAAAADGPGISQLGEVAPLPTLSAPVMEPLINSEPSTGVTEPLTPHQPNHQPSFLTSPQDLASSPMEEDEQHSEADEPPSDEPLSDDPLSPAEEKLPHIDEYWSDSEHIFLDANIGGVAIAPAHGSVLIECARRELHATTPVEHPNRNHPTRLSLVFYQHKNLNKPQHGFELNKIKFEAKEAKNKKMKASEQKDQAANEGPEQSSEVNELNQIPSHKALTLTHDNVVTVSPYALTHVAGPYNHWVIDGGGGSDPKKKRKVDPKKKRKVDPKKKRKVGSTGSRNDGGGGSGGGGSGGGGSGRAGILPPKKKRKVSRGRSRLLEDFRNNRYPNLQLREIAGHIMEFSQDQHGSRFIQLKLERATPAERQLVFNEILQAAYQLMVDVFGNYVIQKFFEFGSLEQKLALAERIRGHVLSLALQMYGSRVIEKALEFIPSDQQNEMVRELDGHVLKCVKDQNGNHVVQKCIECVQPQSLQFIIDAFKGQVFALSTHPYGCRVIQRILEHCLPDQTLPILEELHQHTEQLVQDQYGNYVIQHVLEHGRPEDKSKIVAEIRGNVLVLSQHKFASNVVEKCVTHASRTERAVLIDEVCTMNDGPHSALYTMMKDQYANYVVQKMIDVAEPGQRKIVMHKIRPHIATLRKYTYGKHILAKLEKYYMKNGVDLGDPKKKRKVDPKKKRKVGGRGGGGSGGGGSGGGGSGPA	–	–	≤ 20 fold	–	–
PUFa-TET1(CD): hTET1 catalytic domain (residues 1418 to 2136) fused to the C-terminus of PUFa (protein) MIDGGGGSDPKKKRKVDPKKKRKVDPKKKRKVGSTGSRNDGGGGSGGGGSGGGGSGRAGILPPKKKRKVSRGRSRLLEDFRNNRYPNLQLREIAGHIMEFSQDQHGSRFIQLKLERATPAERQLVFNEILQAAYQLMVDVFGNYVIQKFFEFGSLEQKLALAERIRGHVLSLALQMYGSRVIEKALEFIPSDQQNEMVRELDGHVLKCVKDQNGNHVVQKCIECVQPQSLQFIIDAFKGQVFALSTHPYGCRVIQRILEHCLPDQTLPILEELHQHTEQLVQDQYGNYVIQHVLEHGRPEDKSKIVAEIRGNVLVLSQHKFASNVVEKCVTHASRTERAVLIDEVCTMNDGPHSALYTMMKDQYANYVVQKMIDVAEPGQRKIVMHKIRPHIATLRKYTYGKHILAKLEKYYMKNGVDLGDPKKKRKVDPKKKRKVGGRGGGGSGGGGSGGGGSGPAELPTCSCLDRVIQKDKGPYYTHLGAGPSVAAVREIMENRYGQKGNAIRIEIVVYTGKEGKSSHGCPIAKWVLRRSSDEEKVLCLVRQRTGHHCPTAVMVVLIMVWDGIPLPMADRLYTELTENLKSYNGHPTDRRCTLNENRTCTCQGIDPETCGASFSFGCSWSMYFNGCKFGRSPSPRRFRIDPSSPLHEKNLEDNLQSLATRLAPIYKQYAPVAYQNQVEYENVARECRLGSKEGRPFSGVTACLDFCAHPHRDIHNMNNGSTVVCTLTREDNRSLGVIPQDEQLHVLPLYKLSDTDEFGSKEGMEAKIKSGAIEVLAPRRKKRTCFTQPVPRSGKKRAAMMTEVLAHKIRAVEKKPIPRIKRKNNSTTTNNSKPSSLPTLGSNTETVQPEVKSETEPHFILKSSDNTKTYSLMPSAPHPVKEASPGFSWSPKTASATPAPLKNDATASCGFSERSSTPHCTMPSGRLSGANAAAADGPGISQLGEVAPLPTLSAPVMEPLINSEPSTGVTEPLTPHQPNHQPSFLTSPQDLASSPMEEDEQHSEADEPPSDEPLSDDPLSPAEEKLPHIDEYWSDSEHIFLDANIGGVAIAPAHGSVLIECARRELHATTPVEHPNRNHPTRLSLVFYQHKNLNKPQHGFELNKIKFEAKEAKNKKMKASEQKDQAANEGPEQSSEVNELNQIPSHKALTLTHDNVVTVSPYALTHVAGPYNHWVID	–	–	135 fold	–	maintained during the course of these transient transfections
